Data: patent publication US6794400B2, “4-substituted-1-(arylmethylidene)thiosemicarbazide, 4-substituted-1-(arylcarbonyl)thiosemicarbazide and analogs as activators of caspases and inducers of apoptosis and the use thereof” (Cytovia, Inc., priority 2001, dated 2004)

Tests used:
NCI-H23 = experiment: Cell proliferation assay GI50, NCI-H23; type: cell-based; conditions: Homo sapiens; NCI-H23 cells, 48 h
Procedure: (§1) All the cell lines were grown according to the conditions recommended by American Type Culture Collection. An aliquot of 90 μL of cells (2.2×10^4 cells/mL) was added to a well of a 96-well microtiter plate containing 10 μL of a 10% DMSO in RPMI-1640 media solution containing 1 nM to 100 μM of 4-(bicyclo[2.2.1]hept-5-en-2-yl)-1-(pyridin-2-ylmethylidene)thiosemicarbazide (0.1 nM to 10 μM final). An aliquot of 90 μL of cells was added to a well of a 96-well microtiter plate containing 10 μL of a 10% DMSO in RPMI-1640 media solution without compound as the control sample for maximal cell proliferation (AMax). The samples were mixed by agitation and then incubated at 37° C. for 48 h in a 5% CO2-95% humidity incubator. After incubation, the samples were removed from the incubator and 20 μL of CellTiter 96 AQUEOUS One Solution Cell Proliferation™ reagent (Promega) was added. […] Using an absorbance plate reader (Model 1420 Wallac Instruments), an initial reading (T=0) was made approximately 1-2 min after addition of the solution, employing absorbance at 490 nm. This determines the possible background absorbance of the test compounds. No absorbance for 4-(bicyclo[2.2.1]hept-5-en-2-yl)-1-(pyridin-2-ylmethylidene)thiosemicarbazide was found at 490 nm. After the 2-4 h incubation, the samples were read for absorbance as above (ATest). […]

ZR-75-1 = experiment: Caspase cascade activation (N-(Ac-DEVD)-N'-ethoxycarbonyl-R110 fluorogenic substrate) in ZR-75-1 cells; type: cell-based, human; conditions: 48 h incubation; for Caspase activity Ratio (net RFU of test compound to control): 0.016 to 10 μM final
Procedure: (§2) Human breast cancer cell lines T47D and ZR-75-1 were grown according to media component mixtures designated by American Type Culture Collection+10% FCS (Invitrogen Corporation), in a 5% CO2-95% humidity incubator at 37° C. T-47D and ZR-75-1 cells were maintained at a cell density between 50 and 80% confluency at a cell density of 0.1 to 0.6×10^6 cells/mL. Cells were harvested at 600×g and resuspended at 0.65×10^6 cells/mL into appropriate media+10% FCS. An aliquot of 45 μL of cells was added to a well of a 96-well microtiter plate containing 2.5 μL of a 10% DMSO in RPMI-1640 media solution containing 0.16 to 100 μM of 4-(bicyclo[2.2.1]hept-5-en-2-yl)-1-(pyridin-2-ylmethylidene)thiosemicarbazide or other test compound (0.016 to 10 μM final). An aliquot of 22.5 μL of cells was added to a well of a 384-well microtiter plate containing 2.5 μL of a 10% DMSO in RPMI-1640 media solution without test compound as the control sample. The samples were mixed by agitation and then incubated at 37° C. for 48 h in a 5% CO2-95% humidity incubator. After incubation, the samples were removed from the incubator and 25 μL of a solution containing 14 μM of N-(Ac-DEVD)-N′-ethoxycarbonyl-R110 (SEQ ID NO:1) fluorogenic substrate (Maxim Pharmaceuticals, Inc.; WO99/18856), 20% sucrose (Sigma), 20 mM DTT (Sigma), 200 mM NaCl (Sigma), 40 mM Na PIPES buffer pH 7.2 (Sigma), and 500 μg/ml lysolecithin (Calbiochem) was added. The samples were mixed by agitation and incubated at room temperature. Using a fluorescent plate reader (Model SpectraMax Gemini, Molecular Devices), an initial reading (T=0) was made approximately 1-2 min after addition of the substrate solution, employing excitation at 485 nm and emission at 530 nm, to determine the background fluorescence of the control sample. After the 3 h incubation, the samples were read for fluorescence as above (T=3 h).
(§3) The Relative Fluorescence Unit values (RFU) were used to calculate the sample readings as follows:
(§4) RFU(T=3 h)−Control RFU(T=0)=Net RFU(T=3 h)
(§5) The activity of caspase cascade activation was determined by the ratio of the net RFU value for 4-(bicyclo[2.2.1]hept-5-en-2-yl)-1-(pyridin-2-ylmethylidene)thiosemicarbazide or other test compound to that of control samples. The EC50 (nM) was determined by a sigmoidal dose-response calculation (Prism 2.0, GraphPad Software Inc.).

K562 = experiment: Cell proliferation assay GI50, K562; type: cell-based; conditions: Homo sapiens; K562 cells, 48 h
Procedure: as §1

MCF-7 = experiment: Cell proliferation assay GI50, MCF-7; type: cell-based; conditions: Homo sapiens, MCF7; MCF-7 cells, 48 h
Procedure: as §1

PC-3 = experiment: Cell proliferation assay GI50, PC-3; type: cell-based; conditions: Homo sapiens; PC-3 cells, 48 h
Procedure: as §1

T-47D = experiment: Caspase cascade activation (N-(Ac-DEVD)-N'-ethoxycarbonyl-R110 fluorogenic substrate) in T-47D cells; type: cell-based, human; conditions: 48 h incubation; for Caspase activity Ratio (net RFU of test compound to control): 0.016 to 10 μM final; for EC50: Homo sapiens, T47D, read-out: Caspase potency EC50
Procedure: as §2, §3, §4, §5

T47-D = experiment: Cell proliferation assay (CellTiter 96 AQUEOUS One) GI50, T47-D; type: cell-based; conditions: Homo sapiens, T47D; T47-D cells, 48 h
Procedure: as §1

SK-Br-3 = experiment: Cell proliferation assay GI50, SK-Br-3; type: cell-based; conditions: Homo sapiens; SK-Br-3 cells, 48 h
Procedure: as §1

DLD-1 = experiment: Cell proliferation assay GI50, DLD-1; type: cell-based; conditions: Homo sapiens; DLD-1 cells, 48 h
Procedure: as §1

HeLa = experiment: Cell proliferation assay GI50, HeLa; type: cell-based; conditions: Homo sapiens; HeLa cells, 48 h
Procedure: as §1

MDA-MB-231 = experiment: Cell proliferation assay GI50, MDA-MB-231; type: cell-based; conditions: Homo sapiens; MDA-MB-231 cells, 48 h
Procedure: as §1

P388/ADR = experiment: Cell proliferation assay GI50, drug resistant P388/ADR; type: cell-based; conditions: Mus musculus; P388/ADR (drug resistant) cells
Procedure: as §1

P388 = experiment: Cell proliferation assay GI50, drug sensitive P388; type: cell-based; conditions: Mus musculus; P388 (drug sensitive) cells
Procedure: as §1

Structure (SMILES)	GI50 (NCI-H23) [nM]	Caspase activity Ratio (net RFU of test compound to control) (ZR-75-1)	EC50 (ZR-75-1; Homo sapiens, read-out: Caspase potency EC50) [nM]	GI50 (K562) [nM]	GI50 (MCF-7) [nM]	GI50 (PC-3) [nM]	Caspase activity Ratio (net RFU of test compound to control) (T-47D)	EC50 (T-47D) [nM]	GI50 (T47-D) [nM]	GI50 (SK-Br-3) [nM]	GI50 (DLD-1) [nM]	GI50 (HeLa) [nM]	GI50 (MDA-MB-231) [nM]	GI50 (P388/ADR) [nM]	GI50 (P388) [nM]	Caspase potency EC50 (ZR-75-1)
S=C(NN=Cc1ccccn1)NC1CC2C=CC1C2 (stereo not shown) [Example 16, 4-(Bicyclo[2.2.1]hept-5-en-2-yl)-1-(pyridin-2-ylmethylidene)thiosemicarbazide]	30	3.0	862	50	7	30	3.5	360	5	5	90	60	30	20	20	
Cc1cccc(C=NNC(=S)NC2CC3C=CC2C3)n1 (stereo not shown) [Example 17, 4-(Bicyclo[2.2.1]hept-5-en-2-yl)-1-(6-methyl-pyridin-2-ylmethylidene)thiosemicarbazide]	3000	2.5		3000	300		3.3	866	1000	750	1700					INACTIVE
